Each compound was assayed against T1, Human Polymorphonuclear Leukocyte Elastase (Homo sapiens, UniProt P08246) (assay: Enzyme assay for inhibition of human polymorphonuclear leukocyte elastase via hydrolysis of Boc-AAPAN or Boc-AAPVN). Details: pH 7.5, second order rate constant for inactivation of the enzyme, expressed to the nearest thousand, read-out: Kobs/[I].
T1 construct: Crude extract of human polymorphonuclear leukocytes (PMN) containing elastase activity; from tissue; host or cells: human polymorphonuclear leukocytes (crude extract)
T1 sequence (P08246 30-267): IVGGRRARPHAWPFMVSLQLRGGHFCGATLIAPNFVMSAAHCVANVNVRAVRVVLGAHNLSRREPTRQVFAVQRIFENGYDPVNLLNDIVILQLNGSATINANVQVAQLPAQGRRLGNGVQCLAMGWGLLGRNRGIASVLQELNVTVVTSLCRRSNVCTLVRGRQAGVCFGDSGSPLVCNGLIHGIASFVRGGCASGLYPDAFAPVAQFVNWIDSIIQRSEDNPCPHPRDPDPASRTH
Format: biochemical
Method in brief: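 Crude human PMN extract as enzyme source, with 0.2 mM Boc-AAPAN in 0.05M TES buffer pH 7.5. Inhibitors in DMSO were added to substrate before the extract, and rate was followed as ΔOD/min at 410 mµ. Values are kobs/I, the second-order inactivation rate constant (per mole per second).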

SMILES | kinact/KI [M⁻¹ s⁻¹]
CCC[C@@H](NC(=O)N1C(=O)C(CC)(CC)[C@@H]1Oc1ccc(CC(=O)OCCN(CC)CC)cc1)c1ccc(C)cc1 [Compound 34] | 1.34e+06
CCC[C@@H](NC(=O)N1C(=O)C(CC)(CC)[C@@H]1Oc1ccc(CC(=O)N(C)CCN(C(C)C)C(C)C)cc1)c1ccc(C)cc1 [Compound 58] | 1.63e+06
CCC[C@@H](NC(=O)N1C(=O)C(CC)(CC)[C@@H]1Oc1ccc(C(=O)NCCN2CCC3(CCCCC3)CC2)cc1)c1ccc(C)cc1 [Compound 99] | 2.58e+06
CCC[C@@H](NC(=O)N1C(=O)C(CC)(CC)[C@@H]1Oc1ccc(C(=O)NCCN2CCS(=O)(=O)CC2)cc1)c1ccc(C)cc1 [Compound 109] | 1.28e+06
CCC[C@@H](NC(=O)N1C(=O)C(CC)(CC)[C@@H]1Oc1ccc(CC(=O)N(C)CC(=O)O)cc1)c1ccc(C)cc1 [Compound 50] | 989000
CCC[C@@H](NC(=O)N1C(=O)C(CC)(CC)[C@@H]1Oc1ccc(C(=O)N(CCN(CC)CC)CCN(CC)CC)cc1)c1ccc(C)cc1 [Compound 144] | 1.51e+06
CCC[C@@H](NC(=O)N1C(=O)C(CC)(CC)[C@@H]1Oc1ccc(C(=O)N(C)CCN2CC3CCC(CC3)C2)cc1)c1ccc(C)cc1 [Compound 103] | 3e+06
CCC[C@@H](NC(=O)N1C(=O)C(CC)(CC)[C@@H]1Oc1ccc(C(=O)N(C)CCCN(C)Cc2ccccc2)cc1)c1ccc(C)cc1 [Compound 167] | 1.29e+06
CCC[C@@H](NC(=O)N1C(=O)C(CC)(CC)[C@@H]1Oc1ccc(CC(=O)N2CCOCC2)cc1)c1ccc(C)cc1 [Compound 42] | 1.09e+06
CCC[C@@H](NC(=O)N1C(=O)C(CC)(CC)[C@@H]1Oc1ccc(C(=O)N(C)CCN2CCS(=O)(=O)CC2)cc1)c1ccc(C)cc1 [Compound 112] | 1.6e+06
CCC[C@@H](NC(=O)N1C(=O)C(CC)(CC)[C@@H]1Oc1ccc(CC(=O)N(C)CCN2CCOCC2)cc1)c1ccc(C)cc1 [Compound 53] | 2.51e+06
CCC[C@@H](NC(=O)N1C(=O)C(CC)(CC)[C@@H]1Oc1ccc(C(=O)O[C@@H](C)C(=O)O)cc1)c1ccc(C)cc1 [Compound 11, 1-carboxy-ethyl [S-(R*,S*)]4-((3,3-diethyl-1-(((1-(4-methylphenyl)butyl)amino)carbonyl)-4-oxo-2-azetidinyl)oxy) benzoate] | 1.13e+06
CCC[C@@H](NC(=O)N1C(=O)C(CC)(CC)[C@@H]1Oc1ccc(C(=O)O[C@@H](C)C(=O)N(CC)CC)cc1)c1ccc(C)cc1 [Compound 12, 2-(diethylamino)-1-methyl-2-oxoethyl[S-(R*,S*)]-4-((3,3-diethyl-1-(((1-(4-methyl-phenyl)butyl)amino)carbonyl)-4-oxo-2-azetidinyl)oxy) benzoate] | 2.82e+06
CCC[C@@H](NC(=O)N1C(=O)C(CC)(CC)[C@@H]1Oc1ccc(C(=O)OCCN2CCN(C)CC2)cc1)c1ccc(C)cc1 [Compound 26, 2-(4-methyl-1-piperazinyl)ethyl[S-(R*,S*)]-4-[[3,3-diethyl-1-[[[1-(4-methyl-phenyl)butyl]amino]carbonyl]-4-oxo-2-azetidinyl]oxy]benzoate] | 4.68e+06
CCC[C@@H](NC(=O)N1C(=O)C(CC)(CC)[C@@H]1Oc1ccc(C(=O)OCC(=O)N(C)CC(N)=O)cc1)c1ccc(C)cc1 [Compound 4] | 4.29e+06
CCC[C@@H](NC(=O)N1C(=O)C(CC)(CC)[C@@H]1Oc1ccc(CC(=O)Nc2cccc(Cl)c2)cc1)c1ccc(C)cc1 [Compound 61] | 733000
CCC[C@@H](NC(=O)N1C(=O)C(CC)(CC)[C@@H]1Oc1ccc(C(=O)N2CCC[C@H]2CN(C)Cc2ccccc2)cc1)c1ccc(C)cc1 [Compound 149] | 3.27e+06
CCC[C@@H](NC(=O)N1C(=O)C(CC)(CC)[C@@H]1Oc1ccc(C(=O)N(C)CCCCCCN(C)Cc2ccccc2)cc1)c1ccc(C)cc1 [Compound 168] | 2.16e+06
CCC[C@@H](NC(=O)N1C(=O)C(CC)(CC)[C@@H]1Oc1ccc(C(=O)N(C)CCCC(=O)O)cc1)c1ccc(C)cc1 [Compound 164] | 1.06e+06
CCC[C@@H](NC(=O)N1C(=O)C(CC)(CC)[C@@H]1Oc1ccc(C(=O)OCCN(C(C)C)C(C)C)cc1)c1ccc(C)cc1 [Compound 21, 2-(diisopropylamino)ethyl [S-(R*,S*)]-4-[[3,3-diethyl-1-[[[1-(4-methyl-phenyl)butyl]amino]carbonyl]-4-oxo-2-azetidinyl]oxy]benzoate] | 1.67e+06
CCC[C@@H](NC(=O)N1C(=O)C(CC)(CC)[C@@H]1Oc1ccc(C(=O)OCCCCN(C)C)cc1)c1ccc(C)cc1 [Compound 18, 4-dimethylaminobutyl [S-(R*,S*)]-4-[[3,3-diethyl-1-[[[1-(4-methyl-phenyl)butyl]amino]carbonyl]-4-oxo-2-azetidinyl]oxy]benzoate] | 1.93e+06
CCC[C@@H](NC(=O)N1C(=O)C(CC)(CC)[C@@H]1Oc1ccc(C(=O)N[C@@H](CCCCN)C(=O)O)cc1)c1ccc(C)cc1 [Compound 184] | 755000
CCC[C@@H](NC(=O)N1C(=O)C(CC)(CC)[C@@H]1Oc1ccc(CC(=O)N(C)CCN(CC)CC)cc1)c1ccc(C)cc1 [Compound 55] | 1.32e+06
CCC[C@@H](NC(=O)N1C(=O)C(CC)(CC)[C@@H]1Oc1ccc(C(=O)NCCc2cnc[nH]2)cc1)c1ccc(C)cc1 [Compound 89] | 2.09e+06
CCC[C@@H](NC(=O)N1C(=O)C(CC)(CC)[C@@H]1Oc1ccc(C(=O)N(C)CCN(C)CC2CCCCO2)cc1)c1ccc(C)cc1 (stereo partly drawn) [Compound 173] | 2.94e+06
CCC[C@@H](NC(=O)N1C(=O)C(CC)(CC)[C@@H]1Oc1ccc(CC(=O)N(CC)CC)cc1)c1ccc(C)cc1 [Compound 60] | 1.08e+06
CCC[C@@H](NC(=O)N1C(=O)C(CC)(CC)[C@@H]1Oc1ccc(C(=O)N(C)CCN(C)Cc2ccncc2)cc1)c1ccc(C)cc1 [Compound 148] | 2.39e+06
CCC[C@@H](NC(=O)N1C(=O)C(CC)(CC)[C@@H]1Oc1ccc(CC(=O)N(C)CCN(C)Cc2ccccc2)cc1)c1ccc(C)cc1 [Compound 69] | 2.79e+06
CCC[C@@H](NC(=O)N1C(=O)C(CC)(CC)[C@@H]1Oc1ccc(C(=O)NCCn2ncnn2)cc1)c1ccc(C)cc1 [Compound 100] | 2.01e+06

Other lines, results leading:

kinact/KI [M⁻¹ s⁻¹] | SMILES
1.01e+06 | CCC[C@@H](NC(=O)N1C(=O)C(CC)(CC)[C@@H]1Oc1ccc(C(=O)N(C)CCN(C)C)cc1)c1ccc(OC)cc1 [Compound 290]
398000 | CCC[C@@H](NC(=O)N1C(=O)C(CC)(CC)[C@@H]1Oc1cc(C)c(C(=O)N(CC)CCN(C)C)c(C)c1)c1ccc(C)cc1 [Compound 309]
2.14e+06 | CCC[C@@H](NC(=O)N1C(=O)C(CC)(CC)[C@@H]1Oc1ccc(C(=O)N2CCN(c3ncccn3)CC2)cc1)c1ccc(C)cc1 [Compound 254]
2e+06 | CCC[C@@H](NC(=O)N1C(=O)C(CC)(CC)[C@@H]1Oc1ccc(C(=O)N2CCN(CCO)CC2)cc1)c1ccc(C)cc1 [Compound 256a, [S-(R*,S*)]-2-[4-[[(4-Hydroxyethyl)piperazin-1-yl]carbonyl]phenoxy]-((3,3-diethyl-N-[1-(methylphenyl)butyl]-4-oxo-1-azetidinecarboxamide]
1.76e+06 | CCC[C@@H](NC(=O)N1C(=O)C(CC)(CC)[C@@H]1Oc1ccc(C(=O)N(C)CCN(C)C(=NC#N)Nc2ccccc2)cc1)c1ccc(C)cc1 [Compound 202]
929000 | CCC[C@@H](NC(=O)N1C(=O)C(CC)(CC)[C@@H]1Oc1ccc(C(=O)NCCCC[C@H](N)C(=O)O)cc1)c1ccc(C)cc1 [Compound 209]
1.57e+06 | CCC[C@@H](NC(=O)N1C(=O)C(CC)(CC)[C@@H]1Oc1ccc(C(=O)N2CCN(CC(=O)OCC)CC2)cc1)c1ccc(C)cc1 [Compound 250]
1.88e+06 | CCC[C@@H](NC(=O)N1C(=O)C(CC)(CC)[C@@H]1Oc1ccc(C(=O)N(C)C2CCCN(Cc3ccccc3)C2)cc1)c1ccc(C)cc1 (stereo partly drawn) [Compound 189]
776000 | CCC[C@@H](NC(=O)N1C(=O)C(CC)(CC)[C@@H]1Oc1ccc(C(=O)N(C)CCN(C)Cc2ccccc2)cc1)c1ccc(OCC)cc1 [Compound 296]
1.8e+06 | CCC[C@@H](NC(=O)N1C(=O)C(CC)(CC)[C@@H]1Oc1ccc(C(=O)NOCc2ccccc2)cc1)c1ccc(C)cc1 [Compound 190]
7.49e+06 | CCC[C@@H](NC(=O)N1C(=O)C(CC)(CC)[C@@H]1Oc1ccc(C(=O)N2CCN(c3ccc(F)cc3)CC2)cc1)c1ccc(C)cc1 [Compound 243]
50000 | CCC[C@@H](NC(=O)N1C(=O)C(CC)(CC)[C@@H]1Oc1ccc(C(=O)N2CCCCC2CO)cc1)c1ccc(C)cc1 (stereo partly drawn) [Compound 228]
4.5e+06 | CCC[C@@H](NC(=O)N1C(=O)C(CC)(CC)[C@@H]1Oc1ccc(C(=O)N2CCN(C3CC3)CC2)cc1)c1ccc2c(c1)OCO2 [Compound 265, [S-(R*,S*)]-2-[4-[[(4-Cyclopropyl)piperazin-1-yl]carbonyl]phenoxy]-((3,3-diethyl-N-[1-(3,4-methylenedioxyphenyl)butyl]-4-oxo-1-azetidinecarboxamide]
2.38e+06 | CCC[C@@H](NC(=O)N1C(=O)C(CC)(CC)[C@@H]1Oc1ccc(C(=O)N2CCOCC2)cc1)c1ccc(C)cc1 [Compound 199]
2.24e+06 | CCC[C@@H](NC(=O)N1C(=O)C(CC)(CC)[C@@H]1Oc1ccc(C(=O)N(CCN(C)Cc2ccccc2)Cc2ccncc2)cc1)c1ccc(C)cc1 [Compound 193]

Same assay, conditions: second order rate constant for inactivation of the enzyme, expressed to the nearest thousand; pH 7.5

SMILES | Kobs/[I]
CCCC(NC(=O)N1C(=O)C(CC)(CC)C1Oc1ccc(C(=O)OCCN(c2ccccc2)c2ccccc2)cc1)c1ccc(C)cc1 (stereo not drawn) [Compound 28, 2-(diphenylamino)ethyl[S-(R*,S*)]-4-[[3,3-diethyl-1-[[[1-(4-methylphenyl)butyl]amino]carbonyl]-4-oxo-2-azetidinyl]oxy]benzoate] | 188,000 per mole per second
